These results are taken from patent US8383651B2, “Compounds which selectively modulate the CB2 receptor” (Boehringer Ingelheim International GmbH, priority 2009, dated 2013).

Read-outs that look alike come from different tables or passages of the source. A value given as a limit tells only on which side of the number the result lay.

The target of one test is T1, human CB2R (Homo sapiens, UniProt P34972).
T1 construct: host or cells: CHO cells
The test is described as follows: CB2R mediated modulation of cAMP synthesis. It is filed as cell-based. Here is the method: B. CB2R Mediated Modulation of Camp Synthesis:
Compounds of the invention are evaluated for their CB2 agonist or inverse agonistic activity in accordance with the following experimental method.
(§1) CHO cells expressing human CB2R (Euroscreen) are plated at a density of 5000 cells per well in 384 well plates and incubated overnight at 37° C. After removing the media, the cells are treated with test compounds diluted in stimulation buffer containing 1 mM IBMX, 0.25% BSA and 10 uM Forskolin. The assay is incubated for 30 minutes at 37° C. Cells are lysed and the cAMP concentration is measured using DiscoverX-XS cAMP kit, following the manufacturer's protocol. In this setting, agonists will decrease forskolin induced production of cAMP while inverse agonists will further increase forskolin induced production of cAMP. EC50 of agonists are calculated as follows. The maximal amount of cAMP produced by forskolin compared to the level of cAMP inhibited by 1 uM CP55940 is defined as 100%. The EC50 value of each test compound is determined as the concentration at which 50% of the forskolin-stimulated cAMP synthesis is inhibited. Data is analyzed using a four-parameter logistic model. (Model 205 of XLfit 4.0).

The target in another test is T2, human CB1R (Homo sapiens, UniProt P21554).
T2 construct: host or cells: CHO cells
T2 sequence (P21554 whole entry): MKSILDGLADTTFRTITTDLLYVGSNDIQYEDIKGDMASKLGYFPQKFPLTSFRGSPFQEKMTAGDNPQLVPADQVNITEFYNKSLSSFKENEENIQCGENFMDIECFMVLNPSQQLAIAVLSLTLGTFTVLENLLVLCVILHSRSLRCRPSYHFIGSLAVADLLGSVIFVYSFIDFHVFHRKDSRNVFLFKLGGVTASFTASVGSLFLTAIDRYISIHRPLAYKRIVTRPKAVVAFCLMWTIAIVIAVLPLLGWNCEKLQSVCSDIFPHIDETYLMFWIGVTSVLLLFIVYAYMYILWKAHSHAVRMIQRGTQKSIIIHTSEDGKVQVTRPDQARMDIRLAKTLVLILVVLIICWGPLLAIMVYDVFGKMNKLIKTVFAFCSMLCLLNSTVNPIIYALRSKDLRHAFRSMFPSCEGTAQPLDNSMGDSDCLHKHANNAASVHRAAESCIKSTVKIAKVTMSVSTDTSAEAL
The test is described as follows: CB1R mediated modulation of cAMP synthesis. It is filed as cell-based. As to conditions: inhibition of forskolin-stimulated cAMP synthesis. The procedure:
C. CB1R Mediated Modulation of cAMP Synthesis:
Compounds of the invention are evaluated for their CB1 agonist or inverse agonistic activity in accordance with the following experimental method.
as §1, with “CB1R” for “CB2R”

Setting [1] is: CB1 EC50, CHO cells expressing human CB1R.
The mark [2] stands for this setting: CHO cells expressing human CB2R, inhibition of forskolin-stimulated cAMP synthesis, read-out: CB2 EC50.
The mark [3] stands for this setting: CHO cells expressing human CB1R, read-out: CB1 EC50.

T1 sequence (P34972 whole entry): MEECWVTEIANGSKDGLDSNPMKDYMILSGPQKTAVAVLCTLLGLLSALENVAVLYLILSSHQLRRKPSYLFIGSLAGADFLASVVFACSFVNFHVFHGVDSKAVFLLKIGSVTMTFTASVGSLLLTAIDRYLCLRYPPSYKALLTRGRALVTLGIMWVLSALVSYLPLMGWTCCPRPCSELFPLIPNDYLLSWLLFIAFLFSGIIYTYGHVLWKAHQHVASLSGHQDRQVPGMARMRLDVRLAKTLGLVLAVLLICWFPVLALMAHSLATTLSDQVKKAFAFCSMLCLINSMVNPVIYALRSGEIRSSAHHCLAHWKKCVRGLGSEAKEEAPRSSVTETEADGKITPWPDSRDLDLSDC

Usually EC50 stands for the midpoint of the concentration-response curve. As for `Cc1nnc(C(C)(C)c2cc(NC(=O)C(C)(C)S(=O)(=O)CCCC(F)(F)F)on2)o1`, the values for the EC50 at human CB2R and at human CB1R (setting [1]) were 18 nM and 23100 nM, respectively.
On to `Cc1cc(-c2n[nH]c(NC(=O)C(C)(C)S(=O)(=O)C3CCOCC3)n2)n(C)n1`, for which the EC50 at human CB2R (setting [2]) is 487 nM; on human CB1R (setting [3]), over 50000 nM.
Take `Cc1nnc(C(C)(C)c2cc(NC(=O)C(C)(C)S(=O)(=O)C3CCN(S(C)(=O)=O)CC3)on2)o1`: the EC50 at human CB2R (setting [2]) was 161 nM; at human CB1R (setting [3]), over 50000 nM.
Consider `CC(C)CCS(=O)(=O)C(C)(C)C(=O)Nc1nnc(-c2ncco2)[nH]1`, for which the figures for the EC50 at human CB2R (setting [2]) and on human CB1R (setting [3]) were 172 nM and over 50000 nM, respectively.
For `Cc1ncc(C(C)(C)c2cc(NC(=O)C(C)(C)S(=O)(=O)C3CCOCC3)on2)o1`, the EC50 at human CB2R is 6.8 nM; at human CB1R (setting [1]), over 200000 nM.
In the same order, the values of `CC(C)(C(=O)Nc1nc(-c2ncco2)n[nH]1)S(=O)(=O)C1CCOCC1` are 84 nM and over 50000 nM.
In the same order, the values of `Cc1ncc(C2(c3cc(NC(=O)C(C)(C)S(=O)(=O)C4CCOCC4)on3)CCCC2)o1` [drawing 84] are 4.6 nM and 30000 nM.
With `Cc1cc(-c2nnc(NC(=O)C(C)(C)S(=O)(=O)CCCC(F)(F)F)[nH]2)no1`, the values for the EC50 on human CB2R (setting [2]) and at human CB1R (setting [3]) were 271 nM and over 50000 nM, respectively.
As for `Cc1cc(-c2nnc(NC(=O)C(C)(C)S(=O)(=O)CCC(C)C)[nH]2)no1`, the figures for the concentration giving a half-maximal response (EC50) at human CB2R and at human CB1R (setting [1]) were 37 nM and over 50000 nM, respectively.
For `Cc1ncc(C(C)(C)c2cc(NC(=O)C(C)(C)S(=O)(=O)C3CCOCC3)on2)s1` the same measures were 3.4 nM and over 50000 nM.
In the same order, the values of `Cc1cc(-c2nnc(NC(=O)C(C)(C)S(=O)(=O)C3CCCCC3)[nH]2)on1` are 55 nM and over 20000 nM.
For the compound `Cc1cc(-c2nnc(NC(=O)C(C)(C)S(=O)(=O)CCC3CCOCC3)[nH]2)on1`, the EC50 on human CB2R (setting [2]) was 142 nM; on human CB1R (setting [3]) it was over 50000 nM.
Regarding `CC(C)(c1cc(NC(=O)C(C)(C)S(=O)(=O)C2CCOCC2)on1)c1cnc(-c2ccccc2)o1`, the figures for the EC50 at human CB2R and on human CB1R (setting [1]) were 21 nM and over 50000 nM, respectively.
In the same order, the values of `CCc1ncc(C(C)(C)c2cc(NC(=O)C(C)(C)S(=O)(=O)C3CCN(S(C)(=O)=O)CC3)on2)o1` are 25 nM and 26500 nM.
For the compound `Cc1cc(-c2nnc(NC(=O)C(C)(C)S(=O)(=O)CCC(C)C)[nH]2)on1`, the EC50 was 142 nM at human CB2R (setting [2]) and over 50000 nM at human CB1R (setting [3]).
For the compound `Cc1nnc(C(C)(C)c2cc(NC(=O)C(C)(C)S(=O)(=O)c3ccc(F)cc3)on2)o1`, the EC50 at human CB2R was 97 nM; on human CB1R (setting [1]), over 50000 nM.
`Cc1ncc(C2(c3cc(NC(=O)C(C)(C)S(=O)(=O)C4CCOCC4)on3)CCCC2)o1` [drawing 89] yielded an EC50 at human CB1R (setting [1]) of 30000 nM.
With `CC(C)(C(=O)Nc1nnc(-c2nccs2)[nH]1)S(=O)(=O)C1CCOCC1`, the EC50 on human CB2R (setting [2]) is 303 nM; at human CB1R (setting [3]), over 50000 nM.
In the same order, the values of `Cc1cc(-c2n[nH]c(NC(=O)C(C)(C)S(=O)(=O)C3CCOCC3)n2)no1` are 268 nM and over 50000 nM.
In the case of `Cc1ncc(C(C)(C)c2cc(NC(=O)C(C)(C)S(=O)(=O)C3CCN(S(C)(=O)=O)CC3)on2)s1`, the EC50 on human CB2R was determined as 28 nM; at human CB1R (setting [1]) it was 25100 nM.
